Data from ChEMBL document CHEMBL1130452, “L-373,890, An achiral, noncovalent, subnanomolar thrombin inhibitor” (Bioorg Med Chem Lett, 1997).

Assays:
Serine protease 1 = Serine protease 1 (Homo sapiens, UniProt P07477); assay: Binding affinity against human trypsin
[1] = target: Tissue-type plasminogen activator (Homo sapiens, UniProt P00750); assay: Binding affinity against serine protease Tissue type plasminogen activator
Chymotrypsinogen A = Chymotrypsinogen A (Bos taurus, UniProt P00766); assay: Binding affinity against serine protease […]; format: cell-free
[2] = target: Vitamin K-dependent protein C (Homo sapiens, UniProt P04070); assay: Binding affinity against serine protease Activated protein C
Plasma kallikrein = Plasma kallikrein (Homo sapiens, UniProt P03952); assay: Binding affinity against serine protease plasma kallikrein; format: cell-free
Plasminogen = Plasminogen (Rattus norvegicus, UniProt Q01177); assay: Binding affinity against serine protease plasmin
Prothrombin [3] = target: T1, Prothrombin (Homo sapiens, UniProt P00734); assay: Binding affinity against human thrombin
Prothrombin [4] = target: T1, Prothrombin; assay: Binding affinity was evaluated against human thrombin

Chain of Serine protease 1 (P07477 whole entry): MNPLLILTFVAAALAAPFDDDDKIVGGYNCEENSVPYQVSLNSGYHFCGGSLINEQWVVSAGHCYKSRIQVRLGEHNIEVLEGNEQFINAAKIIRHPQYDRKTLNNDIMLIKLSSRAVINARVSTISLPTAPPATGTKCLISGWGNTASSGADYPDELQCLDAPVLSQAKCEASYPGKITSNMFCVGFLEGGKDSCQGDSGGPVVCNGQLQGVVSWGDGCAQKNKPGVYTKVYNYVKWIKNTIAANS
Chain of Tissue-type plasminogen activator (P00750 whole entry): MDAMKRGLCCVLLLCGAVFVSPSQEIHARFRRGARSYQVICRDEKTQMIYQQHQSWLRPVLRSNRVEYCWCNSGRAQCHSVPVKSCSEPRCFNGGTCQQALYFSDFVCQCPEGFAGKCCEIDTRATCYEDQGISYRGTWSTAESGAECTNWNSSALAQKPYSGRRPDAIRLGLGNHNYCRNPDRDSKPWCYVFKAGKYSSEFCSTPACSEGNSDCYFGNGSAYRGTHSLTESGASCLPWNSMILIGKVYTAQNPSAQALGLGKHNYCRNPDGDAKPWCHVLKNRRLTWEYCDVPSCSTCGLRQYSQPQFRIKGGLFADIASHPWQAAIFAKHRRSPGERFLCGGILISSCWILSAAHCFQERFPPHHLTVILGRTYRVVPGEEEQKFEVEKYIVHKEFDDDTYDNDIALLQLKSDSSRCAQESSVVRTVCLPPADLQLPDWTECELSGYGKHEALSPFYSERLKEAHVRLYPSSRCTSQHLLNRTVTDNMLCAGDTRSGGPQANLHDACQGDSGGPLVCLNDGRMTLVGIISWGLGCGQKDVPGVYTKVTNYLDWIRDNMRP
Chain of Plasminogen (Q01177 97-581 limits assumed): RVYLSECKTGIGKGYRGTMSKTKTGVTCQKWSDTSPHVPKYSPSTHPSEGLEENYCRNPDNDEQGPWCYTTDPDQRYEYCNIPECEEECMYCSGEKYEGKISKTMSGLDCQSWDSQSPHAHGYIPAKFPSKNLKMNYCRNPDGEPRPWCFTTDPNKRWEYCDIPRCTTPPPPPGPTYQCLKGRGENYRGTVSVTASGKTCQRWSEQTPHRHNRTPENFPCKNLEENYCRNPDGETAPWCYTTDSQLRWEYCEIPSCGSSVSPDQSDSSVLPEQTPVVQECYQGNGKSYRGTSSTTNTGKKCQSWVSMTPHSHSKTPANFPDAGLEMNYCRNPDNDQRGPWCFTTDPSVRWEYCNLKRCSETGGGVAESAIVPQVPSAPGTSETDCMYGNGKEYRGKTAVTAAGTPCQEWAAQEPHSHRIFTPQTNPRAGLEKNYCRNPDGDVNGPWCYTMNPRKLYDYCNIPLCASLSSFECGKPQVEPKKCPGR
Chain of Plasminogen (Q01177 582-812 limits assumed): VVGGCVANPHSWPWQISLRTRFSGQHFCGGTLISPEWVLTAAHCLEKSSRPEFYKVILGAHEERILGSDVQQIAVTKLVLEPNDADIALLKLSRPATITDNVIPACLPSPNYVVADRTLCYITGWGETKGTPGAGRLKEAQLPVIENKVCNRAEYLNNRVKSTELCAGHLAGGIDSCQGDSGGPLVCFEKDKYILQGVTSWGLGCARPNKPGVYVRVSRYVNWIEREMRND
Chain of Plasma kallikrein (P03952 20-390 limits assumed): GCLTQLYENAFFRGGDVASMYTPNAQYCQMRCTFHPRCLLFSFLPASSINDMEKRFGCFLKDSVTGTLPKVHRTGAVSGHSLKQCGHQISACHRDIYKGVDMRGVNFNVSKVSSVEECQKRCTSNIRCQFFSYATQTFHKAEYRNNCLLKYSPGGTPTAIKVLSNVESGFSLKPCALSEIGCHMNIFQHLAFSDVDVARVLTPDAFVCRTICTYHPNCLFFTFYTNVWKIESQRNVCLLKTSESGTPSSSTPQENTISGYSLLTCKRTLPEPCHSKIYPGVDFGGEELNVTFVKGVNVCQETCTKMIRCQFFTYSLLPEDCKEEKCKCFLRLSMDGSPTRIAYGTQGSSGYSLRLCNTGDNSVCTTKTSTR
Chain of Plasma kallikrein (P03952 391-638 limits assumed): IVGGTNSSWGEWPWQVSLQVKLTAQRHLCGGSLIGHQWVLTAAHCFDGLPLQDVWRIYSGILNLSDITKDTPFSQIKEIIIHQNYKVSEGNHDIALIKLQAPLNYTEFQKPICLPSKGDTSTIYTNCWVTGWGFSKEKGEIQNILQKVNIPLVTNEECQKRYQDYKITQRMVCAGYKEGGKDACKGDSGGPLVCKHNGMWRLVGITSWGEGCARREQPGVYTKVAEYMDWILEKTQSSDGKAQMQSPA
Chain of Vitamin K-dependent protein C (P04070 43-197 limits assumed): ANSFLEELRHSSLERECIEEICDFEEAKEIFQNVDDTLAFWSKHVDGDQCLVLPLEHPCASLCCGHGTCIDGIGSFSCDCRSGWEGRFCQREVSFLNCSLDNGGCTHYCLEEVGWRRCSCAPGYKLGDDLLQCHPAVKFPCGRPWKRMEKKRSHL
Chain of Vitamin K-dependent protein C (P04070 212-461 limits assumed): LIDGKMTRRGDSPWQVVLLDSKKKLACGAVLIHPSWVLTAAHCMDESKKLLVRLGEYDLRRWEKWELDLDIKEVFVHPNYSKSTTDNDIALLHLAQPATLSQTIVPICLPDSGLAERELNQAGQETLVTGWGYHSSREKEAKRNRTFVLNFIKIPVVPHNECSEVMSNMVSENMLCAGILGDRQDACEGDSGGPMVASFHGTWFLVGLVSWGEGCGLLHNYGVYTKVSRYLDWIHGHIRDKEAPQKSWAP

Ki (Serine protease 1) | Ki (Prothrombin [3]) | SMILES | also measured
570 nM | – | Cc1ccc(NS(=O)(=O)Cc2ccccc2)c(=O)n1CC(=O)NCC1CCN(C(=N)N)CC1 | Ki [1]: > 20000 nM; Ki (Chymotrypsinogen A): > 20000 nM; Ki [2]: > 20000 nM; Ki (Plasma kallikrein): > 20000 nM; Ki (Plasminogen): > 20000 nM
940 nM | 95 nM | Cc1ccc(NC(=O)CCc2ccccc2)c(=O)n1CC(=O)NCC1CCN(C(=N)N)CC1 | –
1500 nM | 690 nM | Cc1ccc(NC(=O)c2ccccc2)c(=O)n1CC(=O)NCC1CCN(C(=N)N)CC1 | –
890 nM | 166 nM | Cc1ccc(NC(=O)CC(c2ccccc2)c2ccccc2)c(=O)n1CC(=O)NCC1CCN(C(=N)N)CC1 | –
350 nM | 77 nM | Cc1ccc(NC(=O)OCc2ccccc2)c(=O)n1CC(=O)NCC1CCN(C(=N)N)CC1 | –

The remaining lines, values behind:

SMILES | Ki (Serine protease 1) | Ki (Prothrombin [3]) | also measured
Cc1ccc(NS(=O)(=O)Cc2ccccc2)c(=O)n1CC(=O)NC[C@H]1CC[C@H](N)CC1 | 3000 nM | – | –
CN[C@H](Cc1ccccc1)C(=O)N1CCCC1C(=O)NC[C@H]1CC[C@H](N)CC1 (some centres not stated) | – | – | Ki (Prothrombin [4]): 5 nM
Cc1ccc(S(=O)(=O)Nc2ccc(C)n(CC(=O)NC[C@H]3CC[C@H](N)CC3)c2=O)cc1 | 2100 nM | 47 nM | –
Cc1ccc(S(=O)(=O)Nc2ccc(C)n(CC(=O)NCC3CCN(C(=N)N)CC3)c2=O)cc1 | 140 nM | 29 nM | –
Cc1ccc(NCCc2ccccc2)c(=O)n1CC(=O)NC[C@H]1CC[C@H](N)CC1 | 2200 nM | 47 nM | –
